Earlier results as cited in US20150031700A1, “Methods of Treating Cutaneous Flushing Using Selective Alpha-2-adrenergic Receptor Agonists” (GALDERMA LABORATORIES INC., priority 2003, published 2015).

Assays:
α2 adrenergic receptor [1] = conditions: α2 vs α1 adrenergic receptor, compared with clonidine
α2 adrenergic receptor [2] = conditions: compared with clonidine; Burke et al., 1996
[3] = toxicity studies; Walters, 1996

Row | Molecule | selectivity for the α2 adrenergic receptor relative to clonidine (α2 adrenergic receptor [1]) | α2 adrenergic receptor activity relative to clonidine (α2 adrenergic receptor [2]) | oncogenic or teratogenic activity [3] | toxicity [3]
1 | Brc1c(NC2=NCCN2)ccc2nccnc12 [brimonidine] | 7-12 fold | – | – | –
2 | brimonidine tartrate | – | 10 fold | no oncogenic or teratogenic activity | nontoxic
